Test results: patent US4767770A, “Method of inhibiting aromatase” (Eli Lilly and Company, priority 1984, dated 1988)

What was measured:
breast cancer = settings: result in words; see Cancer Research, Vol. 42, Suppl. 8:3261s (1982); cited from earlier work
[1] = test system: DMBA-induced mammary tumors; test: DMBA-induced Mammary Tumor Inhibition; type: in vivo, female Sprague-Dawley rats; settings: Test I, 300 ppm in diet (approx. 30 mg/kg/day), 5 weeks
Experimental: Mammary tumors were produced in female Sprague-Dawley rats which were 50-60 days old by the gavage administration of 20 mg of 7,12-dimethylbenz[a]anthracene (DMBA). About six weeks after DMBA administration, the mammary glands were palpated at weekly intervals for the appearance of tumors. Whenever one or more tumors appeared and were measurable in an animal, that animal was selected for experimentation. […] Each control and test group contained 8 animals. The test compound was administered mixed into the food at a concentration of 300 ppm (corresponding to an appropriate daily dose of 30 mg/kg). Every experiment included a group of control rats having tumors and were given food without the compound admixed. […] The area of each tumor was calculated by multiplying the shortest and longest diameters of the tumor. The treatment and measurement of animals continued for 4-5 weeks at which time the final areas of the tumors were determined. For each compound (and control) at each dose level, the change in the mean tumor area was determined.
*dosed in the diet. 300 ppm corresponds to approximately 30 mg/kg/day.

[2] = test system: estrogen synthesis (aromatization); uterus; test: Estrogen Synthesis Inhibition in Rats: uterine weight of testosterone propionate-treated immature rats; type: in vivo, immature female Wistar rats; settings: Test II, 7 days
Experimental: Immature female Wistar rats (45-55 grams) were divided into control and test groups of 2-8 animals each. Test compounds were administered for seven days as a component of the diet. Control animals received diet without the test compound. Beginning on the fourth day of the test, all animals treated with the test compound and one half of the control animals were given a subcutaneous injection of 1.0 mg of testosterone propionate in corn oil. The remaining control animals received only an equivalent volume of corn oil. On the seventh day of the test, rats treated with testosterone propionate were injected subcutaneously with 100 μCi of [^3 H]-testosterone in 50 μl of 3:1 (v/v) saline-ethanol.
After two hours, the animals were killed by decapitation. Uteri were isolated, trimmed of extraneous connective tissue, and weighed. […] In the control animals treated with testosterone propionate, estrogens produced by aromatization stimulated the uterus resulting in an increase in weight.
*ppm in feed. 300 ppm corresponds to approximately 30 mg/kg/day; 200 ppm
corresponds to approximately 20 mg/kg/day; 30 ppm corresponds to
approximately 3 mg/kg/day.

[3] = test system: estrogen synthesis (ovarian estradiol, estrone, estriol); test: Estrogen Synthesis Inhibition in Rats: ovarian steroid concentration after [3H]-testosterone; type: in vivo, immature female Wistar rats; settings: Test II, 7 days; for Mean Steroid Concentration, estriol: testosterone-treated control 1.98
Experimental: Test compounds were administered for seven days as a component of the diet. Control animals received diet without the test compound. Beginning on the fourth day of the test, all animals treated with the test compound and one half of the control animals were given a subcutaneous injection of 1.0 mg of testosterone propionate in corn oil. The remaining control animals received only an equivalent volume of corn oil.
The ovarian steroids were extracted with 1.5 ml of 9:1 (v/v) toluene/ethanol to which had been added 25 to 100 mcg each of unlabelled estradiol, estriol, and estrone, and approximately 1000 dpm of [^14 C]-estradiol. The samples were vortexed, centrifuged at 500×g for 10 minutes, and the organic phase was transferred to a conical vial. Two additional extractions were performed on the residue in the same way. The pooled organic extracts were evaporated for subsequent thin-layer chromatography.
Ovarian proteins were precipitated by the addition of 5.0 ml of ethanol to the remaining aqueous phase. After an overnight incubation at 4° C., the samples were centrifuged at 1500×g for 10 minutes. The supernatant was discarded and the pellet was dissolved in 0.3N potassium hydroxide.
The organic residue from each above extraction was redissolved in 9:1 (v/v) dichloromethane/methanol. The solution of each sample was applied to separate silica gel thin layer chromatography plates which contained a fluorescent indicator. The plates were developed in the first dimension with 160:38:1.5:0.5 (v/v/v/v) dichloromethane/ethyl acetate/methanol/acetic acid to within 3 cm of the top of the plate. After air-drying, the plate was developed in the second dimension with 180:19:1 (v/v/v) dichloromethane/methanol/ammonium hydroxide.
The spots were scraped from the plate using a glass wool plugged Pasteur pipet attached to a vacuum line. The steroids were eluted directly into scintillation vials by the addition of 0.2 ml of dichloromethane followed by two washes each of 2.0 ml of methanol. The organic solvent was evaporated and 10.0 ml of scintillation fluid (Beckman Ready Solv-NA) was added to the vials. Samples were analyzed by liquid scintillation spectrometry. Corrections were made based on the recoveries of the [^14 C]-steroid. Steroid concentrations are expressed as femtomoles per milligram protein.

aromatase = target: T1, aromatase (Rattus norvegicus, UniProt P22443); test: biochemical; settings: rat ovarian microsomes; substrate (androstenedione) 0.1 μM
T1 sequence (P22443 1-508): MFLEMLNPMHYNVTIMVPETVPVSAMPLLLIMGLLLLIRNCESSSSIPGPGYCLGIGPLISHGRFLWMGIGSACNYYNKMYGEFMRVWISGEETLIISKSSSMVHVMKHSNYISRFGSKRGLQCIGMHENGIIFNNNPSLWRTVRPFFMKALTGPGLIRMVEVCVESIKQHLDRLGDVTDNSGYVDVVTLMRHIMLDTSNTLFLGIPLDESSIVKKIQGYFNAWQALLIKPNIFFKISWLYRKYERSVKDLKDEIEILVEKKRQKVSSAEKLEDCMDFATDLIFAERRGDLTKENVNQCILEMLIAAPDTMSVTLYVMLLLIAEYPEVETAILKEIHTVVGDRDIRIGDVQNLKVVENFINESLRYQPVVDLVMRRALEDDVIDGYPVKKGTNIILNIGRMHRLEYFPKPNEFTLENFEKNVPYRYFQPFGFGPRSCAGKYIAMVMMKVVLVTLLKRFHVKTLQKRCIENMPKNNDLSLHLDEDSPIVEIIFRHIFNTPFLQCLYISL
Experimental: In this test system, ovarian microsomes are obtained from rats treated with pregnant mares serum gonadotropin. Test compounds are added to reaction vials containing 0.1 μM 4-androstene-3,17-dione, 100,000 dpm 1,2[^3 H]-androstenedione, the microsomes and a NADPH generating system. The concentrations of the inhibitors tested ranged between 0.005 and 10 μM.

Row | Compound | effect in treatment of breast cancer (breast cancer) | Mean Tumor Area, Start ([1]; baseline, control 73.9) [mm^2] | Mean Tumor Area, Finish ([1]; control 1140.0) [mm^2] | Mean Uterine Weight ([2]; 30 ppm in feed (approx. 3 mg/kg/day), testosterone-treated control 176.7) [mg] | Mean Uterine Weight ([2]; 300 ppm in feed (approx. 30 mg/kg/day), value marked + (p < 0.05 vs testosterone-treated control, 176.7)) [mg] | Mean Steroid Concentration, estrone ([3]; 30 ppm in feed (approx. 3 mg/kg/day), testosterone-treated control 0.64) | Mean Steroid Concentration, estriol ([3]; 30 ppm in feed (approx. 3 mg/kg/day)) | Mean Steroid Concentration, estradiol ([3]; 30 ppm in feed (approx. 3 mg/kg/day), testosterone-treated control 2.07) | Mean Steroid Concentration, estriol ([3]; 300 ppm in feed (approx. 30 mg/kg/day)) | Mean Steroid Concentration, estrone ([3]; 300 ppm in feed (approx. 30 mg/kg/day), value marked + (p < 0.05 vs testosterone-treated control, 0.64)) | Mean Steroid Concentration, estradiol ([3]; 300 ppm in feed (approx. 30 mg/kg/day), value marked + (p < 0.05 vs testosterone-treated control, 2.07)) | EC50 (aromatase) [nM]
1 | C[C@]12C=CC(=O)C=C1CC[C@@H]1[C@@H]2CC[C@]2(C)OC(=O)CC[C@@H]12 [testolactone] | beneficial effect in treatment of breast cancer | – | – | – | – | – | – | – | – | – | – | –
2 | CCC1(c2ccc(N)cc2)CCC(=O)NC1=O (stereo not shown) [aminoglutethimide] | beneficial effect in treatment of breast cancer | – | – | – | – | – | – | – | – | – | – | –
3 | Fc1ccc(N(Cc2cccnc2)C2=NCCS2)c(F)c1 [N--(2,4-difluorophenyl)-N--(4,5-dihydro-2-thiazolyl)-3-pyridinemethanamine] | – | 83.6 | 536.0 | 140.0 | 104.5 | 0.65 femtomoles per milligram of protein | 1.56 femtomoles per milligram of protein | 1.27 femtomoles per milligram of protein | 1.18 femtomoles per milligram of protein | 0.31 femtomoles per milligram of protein | 1.05 femtomoles per milligram of protein | 28
